Laboratory results from patent US7378402B2, “Anti-viral nucleosides” (Roche Palo Alto LLC, priority 2004, dated 2008).
Each block holds one compound with its values, some of them ahead of it.

Key:
HIV = conditions: cited from earlier work
[1] = system: HCV replicon RNA (Renilla luciferase HCV replicon cells 2209-23, human hepatoma Huh7); assay: Renilla luciferase HCV replicon assay; type: cell-based, hepatitis C virus (HCV); conditions: Huh-7, 72 h; replicon cells 2209-23, incubated three days at 37° C.; concentration reducing replicon level by 50%
[2] = monotherapy; cited from earlier work

melting point: 160.4 to 162.2 °C
SMILES: CCCCC(=O)O[C@@H]1[C@H](n2ccc(N)nc2=O)O[C@@](CO)(N=[N+]=[N-])[C@H]1OC(=O)CCCC

melting point: 106.9 to 107.3 °C
SMILES: CC(C)C(NC(=O)OC(C)(C)C)C(=O)OC[C@@]1(N=[N+]=[N-])O[C@@H](n2ccc(N)nc2=O)[C@@H](O)[C@@H]1O (stereo partly shown)

melting point: 110.3 to 119.3 °C
SMILES: CCCCCCCCCCCCCC(=O)OC[C@@]1(N=[N+]=[N-])O[C@@H](n2ccc(N)nc2=O)[C@@H](O)[C@@H]1O

SMILES: C#CC1(CO)OC(n2ccc(N)nc2=O)C(O)C1O (stereo not shown) [Compound 12a, 4-Ethynyl-cytarabine]
anti-HIV activity (HIV): good anti-HIV activity

SMILES: [N-]=[N+]=N[C@]1(CO)O[C@@H](n2ccc(N)nc2=O)[C@@H](O)[C@@H]1O [Compound I-1, 4-Amino-1-((2R,3S,4S,5R)-5-azido-3,4-dihydroxy-5-hydroxymethyl-tetrahydro-furan-2yl)-1H-pyrimidin-2-one]
IC50 [1]: 220 nM

SMILES: NC(=O)c1ncn([C@@H]2O[C@H](CO)[C@@H](O)[C@H]2O)n1 [ribavirin, 1-((2R,3R,4S,5R)-3,4-Dihydroxy-5-hydroxymethyl-tetrahydro-furan-2-yl)-1H-[1,2,4]triazole-3-carboxylic acid amide]
effect on serum levels of HCV-RNA [2]: does not lower
patients in whom serum amino transferase levels are reduced to normal [2]: 40%
